From PMC12136031 (Science Advances, 2025)
Values belong to the molecule of their own block, whether it stands above or below them.

Legend:
TFEB = assay: Immunoblot of TFEB in OC43-infected BEAS-2B cells; assay type: cell-based, human; details: for TFEB protein during viral infection: OC43, cotreatment with inhibitors of ubiquitin-proteasome system; for Decline in TFEB protein levels during viral infection: OC43, mTORC1 inhibition (10 nM)
[1] = molecular target: T1, DCAF7 recombinant protein, P61962; assay: streptavidin pull-down (peptide binding assay), DCAF7 immunoblot densitometry; details: chain shown with the change; n = 3; parent: est. 1.0; read off a plot
T1 chain: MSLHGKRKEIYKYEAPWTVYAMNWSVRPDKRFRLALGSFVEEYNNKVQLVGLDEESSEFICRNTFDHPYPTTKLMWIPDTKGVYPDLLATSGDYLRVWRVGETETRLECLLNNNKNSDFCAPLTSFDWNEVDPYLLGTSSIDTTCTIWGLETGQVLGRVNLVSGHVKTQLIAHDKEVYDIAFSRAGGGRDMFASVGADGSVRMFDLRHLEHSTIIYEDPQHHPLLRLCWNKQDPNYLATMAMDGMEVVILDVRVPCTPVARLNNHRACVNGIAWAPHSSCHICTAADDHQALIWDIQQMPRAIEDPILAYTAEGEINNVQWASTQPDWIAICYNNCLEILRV

Molecule: NS(=O)(=O)OC[C@@H]1C[C@@H](n2ccc3c(N[C@H]4CCc5ccccc54)ncnc32)C[C@@H]1O [MLN4924]
- TFEB protein during viral infection (TFEB): substantially preserved

Molecule: NS(=O)(=O)OC[C@H]1C[C@@H](Nc2ccnc3cc(-c4cccc(SC(F)(F)F)c4)nn23)[C@H](O)[C@@H]1O [TAK-243]
- TFEB protein during viral infection (TFEB): substantially preserved

Molecule: CCC(=O)N1CCN(c2ccc(-n3c(=O)ccc4cnc5ccc(-c6cnc7ccccc7c6)cc5c43)cc2C(F)(F)F)CC1 [Torin1]
- Decline in TFEB protein levels during viral infection (TFEB): did not rescue

Molecule: CC(C)C[C@H](NC(=O)[C@H](CCc1ccccc1)NC(=O)CN1CCOCC1)C(=O)N[C@@H](Cc1ccccc1)C(=O)N[C@@H](CC(C)C)C(=O)[C@@]1(C)CO1 [carfilzomib]
- TFEB protein during viral infection (TFEB): substantially preserved

Molecule: CO[C@H]1C[C@@H]2CC[C@@H](C)[C@@](O)(O2)C(=O)C(=O)N2CCCC[C@H]2C(=O)O[C@H]([C@H](C)C[C@@H]2CC[C@@H](O)[C@H](OC)C2)CC(=O)[C@H](C)/C=C(\C)[C@@H](O)[C@@H](OC)C(=O)[C@H](C)C[C@H](C)/C=C/C=C/C=C/1C [rapamycin]
- Decline in TFEB protein levels during viral infection (TFEB): did not rescue

- response [1]: 0.5
B1: Biotinylated TFEB peptide, region 136 to 145, unmodified sequence (I), P19484 S138A; S142A (peptide)
chain: GNAAPNAPMA

- response [1]: 2.9
B2: Biotinylated TFEB peptide, region 136 to 145, unmodified sequence (I), P19484 S138D; S142D (peptide)
chain: GNDAPNDPMA
